# Assay results as given in patent publication US6479519B1, “Substituted anilides” (Aventis Pharma Limited, priority 1997, dated 2002).
row,melting point,Structure (SMILES)
1,220 to 222 °C,"COc1cc(CC(=O)Nc2ccc([C@@H](CC(=O)O)NC(=O)CCCC(=O)O)cc2)ccc1NC(=O)Nc1ccccc1C [Example 5(h), (R)-3-(4-carboxybutanoyl-amino)-3-(4-{3-methoxy-4-[3-(2-methylphenyl)ureido]phenylacetylamino}-phenyl)-propanoic acid]"
2,190 °C (dec.),"COc1cc(CC(=O)Nc2ccc([C@@H](CC(=O)O)NC(=O)c3ccc[n+]([O-])c3)cc2)ccc1NC(=O)Nc1ccccc1C [Example 11, (R)-3-[(1-oxido-pyridine-3-carbonyl)amino]-3-(4-{3-methoxy-4-[3-(2-methylphenyl)ureido]-phenylacetylamino}phenyl)-propanoic acid]"
3,105 to 108 °C (dec.),"COc1cc(N(C(C)=O)c2ccc([C@@H](CC(=O)O)NC(=O)CN)cc2)ccc1NC(=O)Nc1ccccc1C [Example 10, (R)-3-[(2-amino-acetyl)amino]-3-(4-{3-methoxy-4-[3-(2-methylphenyl)ureido]phenyl-acetylamino}phenyl)propanoic acid]"
